# Data as given in patent publication US10597388B2, “Pyridazinone herbicides” (FMC CORPORATION, priority 2014, dated 2020).
# Tests used:
# Assay in all cases: Test D controlled growth environment herbicide test, pre- and postemergence
# Type in all cases: in vivo
# [1] = tested on: chickweed (common chickweed, Stellaria media)
# Description: (§1) Seeds of plant species selected from bluegrass (annual bluegrass, Poa annua), blackgrass (Alopecurus myosuroides), Canada thistle (Cirsium arvense), canarygrass (Phalaris minor), chickweed (common chickweed, Stellaria media), geranium, cutleaf (cutleaf geranium, Geranium dissectum), galium (catchweed bedstraw, Galium aparine), bromegrass, downy (downy bromegrass, Bromus tectorum), field poppy (Papaver rhoeas), field violet (Viola arvensis), foxtail, green (green foxtail, Setaria viridis), deadnettle (henbit deadnettle, Lamium amplexicaule), ryegrass, Italian (Italian ryegrass, Lolium multiflorum), kochia (Kochia scoparia), lambsquarters (Chenopodium album), oilseed rape (Brassica napus), pigweed (Amaranthus retroflexus), chamomile (scentless chamomile, Matricaria inodora), Russian thistle (Salsola kali), speedwell (bird's-eye speedwell, Veronica persica), barley, spring (spring barley, Hordeum vulgare), wheat, spring (spring wheat, Triticum aestivum), buckwheat, wild (wild buckwheat, Polygonum convolvulus), mustard, wild (wild mustard, Sinapis arvensis), oat, wild (wild oat, Avena fatua), radish, wild (wild radish, Raphanus raphanistrum), windgrass (Apera spica-venti), barley, winter (winter barley, Hordeum vulgare), and wheat, winter (winter wheat, Triticum aestivum) were planted into a silt loam soil and treated preemergence with test chemicals formulated in a non-phytotoxic solvent mixture which included a surfactant.
# (§2) At the same time, these species were planted in pots containing Redi-Earth® planting medium (Scotts Company, 14111 Scottslawn Road, Marysville, Ohio 43041) comprising spaghnum peat moss, vermiculite, wetting agent and starter nutrients and treated with postemergence applications of the test chemicals formulated in the same manner. Plants ranged in height from 2 to 18 cm (1- to 4-leaf stage). Treated plants and controls were maintained in a controlled growth environment for 14 to 21 d after which time all species were compared to controls and visually evaluated. Plant response ratings, summarized in Table D, are based on a scale of 0 to 100 where 0 is no effect and 100 is complete control. A dash (-) response means no test result.
# [2] = tested on: deadnettle (henbit deadnettle, Lamium amplexicaule)
# Description: as §1, §2
# [3] = tested on: galium (catchweed bedstraw, Galium aparine)
# Description: as §1, §2
# [4] = tested on: mustard, wild (wild mustard, Sinapis arvensis)
# Description: as §1, §2
# [5] = tested on: wheat, winter (winter wheat, Triticum aestivum)
# Description: as §1, §2
# [6] = tested on: lambsquarters (Chenopodium album)
# Description: as §1, §2
# [7] = tested on: windgrass (Apera spica-venti)
# Description: as §1, §2
# [8] = tested on: speedwell (bird's-eye speedwell, Veronica persica)
# Description: as §1, §2
# [9] = tested on: bromegrass, downy (downy bromegrass, Bromus tectorum)
# Description: as §1, §2
# [10] = tested on: field poppy (Papaver rhoeas)
# Description: as §1, §2
# kochia (Kochia scoparia) = tested on: kochia (Kochia scoparia)
# Description: as §1, §2
# [11] = tested on: Russian thistle (Salsola kali)
# Description: as §1, §2
# [12] = tested on: barley, winter (winter barley, Hordeum vulgare)
# Description: as §1, §2
# [13] = Postemergence, 31 g ai/ha, scale 0 to 100 (0 no effect, 100 complete control)
# [14] = Postemergence, 125 g ai/ha, visual rating on scale 0 (no effect) to 100 (complete control), 14 to 21 d
# [15] = Postemergence, 250 g ai/ha, scale 0 to 100 (0 no effect, 100 complete control)
# [16] = Preemergence, 62 g ai/ha, scale 0 to 100 (0 no effect, 100 complete control)
# [17] = Preemergence, 125 g ai/ha, scale 0 to 100 (0 no effect, 100 complete control)
# [18] = Preemergence, 250 g ai/ha, scale 0 to 100 (0 no effect, 100 complete control)
# [19] = postemergence, 62 g ai/ha, scale 0 to 100, 0 no effect, 100 complete control
smiles,measurement,setting,value
Cc1ccc(-c2c(O)c(Br)nn(C)c2=O)c2ccccc12 [Compound 52],Chickweed plant response rating,[1]; [13],90
same,"Plant response rating, Chickweed",[1]; [14],90
same,"Plant response rating, Chickweed",[1]; [15],100
same,"Plant response rating (scale of 0 to 100), Chickweed","[1]; Preemergence, 31 g ai/ha",98
same,"Plant response rating, Chickweed",[1]; [16],98
same,"Plant response rating, Chickweed",[1]; [17],100
same,"Plant response rating, Chickweed",[1]; [18],100
same,"Plant response rating, Chickweed",[1]; [19],100
same,Deadnettle plant response rating,[2]; [13],35
same,"Plant response rating, Deadnettle",[2]; [14],35
same,"Plant response rating, Deadnettle",[2]; [15],35
same,"Plant response rating (scale of 0 to 100), Deadnettle","[2]; Preemergence, 31 g ai/ha",0
same,"Plant response rating, Deadnettle",[2]; [16],0
same,"Plant response rating, Deadnettle",[2]; [17],10
same,"Plant response rating, Deadnettle",[2]; [18],25
same,"Plant response rating, Deadnettle",[2]; [19],25
same,Galium plant response rating,[3]; [13],90
same,"Plant response rating, Galium",[3]; [14],98
same,"Plant response rating, Galium",[3]; [15],100
same,"Plant response rating (scale of 0 to 100), Galium","[3]; Preemergence, 31 g ai/ha",70
same,"Plant response rating, Galium",[3]; [16],100
same,"Plant response rating, Galium",[3]; [17],90
same,"Plant response rating, Galium",[3]; [18],95
same,"Plant response rating, Galium",[3]; [19],95
same,"Mustard, Wild plant response rating",[4]; [13],20
same,"Plant response rating, Mustard, Wild",[4]; [14],90
same,"Plant response rating, Mustard, Wild",[4]; [15],100
same,"Plant response rating (scale of 0 to 100), Mustard, Wild","[4]; Preemergence, 31 g ai/ha",85
same,"Plant response rating, Mustard, Wild",[4]; [16],100
same,"Plant response rating, Mustard, Wild",[4]; [17],90
same,"Plant response rating, Mustard, Wild",[4]; [18],98
same,"Plant response rating, Mustard, Wild",[4]; [19],75
same,"Wheat, Winter plant response rating",[5]; [13],0
same,"Plant response rating, Wheat, Winter",[5]; [14],15
same,"Plant response rating, Wheat, Winter",[5]; [15],15
same,"Plant response rating (scale of 0 to 100), Wheat, Winter","[5]; Preemergence, 31 g ai/ha",0
same,"Plant response rating, Wheat, Winter",[5]; [16],0
same,"Plant response rating, Wheat, Winter",[5]; [17],0
same,"Plant response rating, Wheat, Winter",[5]; [18],0
same,"Plant response rating, Wheat, Winter",[5]; [19],10
same,Lambsquarters plant response rating,[6]; [13],75
same,"Plant response rating, Lambsquarters",[6]; [14],75
same,"Plant response rating, Lambsquarters",[6]; [15],90
same,"Plant response rating (scale of 0 to 100), Lambsquarters","[6]; Preemergence, 31 g ai/ha",35
same,"Plant response rating, Lambsquarters",[6]; [16],90
same,"Plant response rating, Lambsquarters",[6]; [17],100
same,"Plant response rating, Lambsquarters",[6]; [18],100
same,"Plant response rating, Lambsquarters",[6]; [19],75
same,Windgrass plant response rating,[7]; [13],0
same,"Plant response rating, Windgrass",[7]; [14],5
same,"Plant response rating, Windgrass",[7]; [15],5
same,"Plant response rating (scale of 0 to 100), Windgrass","[7]; Preemergence, 31 g ai/ha",10
same,"Plant response rating, Windgrass",[7]; [16],10
same,"Plant response rating, Windgrass",[7]; [17],10
same,"Plant response rating, Windgrass",[7]; [18],10
same,"Plant response rating, Windgrass",[7]; [19],5
same,Speedwell plant response rating,[8]; [13],70
same,"Plant response rating, Speedwell",[8]; [14],100
same,"Plant response rating, Speedwell",[8]; [15],100
same,"Plant response rating (scale of 0 to 100), Speedwell","[8]; Preemergence, 31 g ai/ha",50
same,"Plant response rating, Speedwell",[8]; [16],100
same,"Plant response rating, Speedwell",[8]; [17],95
same,"Plant response rating, Speedwell",[8]; [18],100
same,"Plant response rating, Speedwell",[8]; [19],85
same,"Bromegrass, Downy plant response rating",[9]; [13],0
same,"Plant response rating, Bromegrass, Downy",[9]; [14],0
same,"Plant response rating, Bromegrass, Downy",[9]; [15],10
same,"Plant response rating (scale of 0 to 100), Bromegrass, Downy","[9]; Preemergence, 31 g ai/ha",0
same,"Plant response rating, Bromegrass, Downy",[9]; [16],0
same,"Plant response rating, Bromegrass, Downy",[9]; [17],15
same,"Plant response rating, Bromegrass, Downy",[9]; [18],20
same,"Plant response rating, Bromegrass, Downy",[9]; [19],0
same,Field Poppy plant response rating,[10]; [13],85
same,"Plant response rating, Field Poppy",[10]; [14],90
same,"Plant response rating, Field Poppy",[10]; [15],100
same,"Plant response rating (scale of 0 to 100), Field Poppy","[10]; Preemergence, 31 g ai/ha",0
same,"Plant response rating, Field Poppy",[10]; [16],0
same,"Plant response rating, Field Poppy",[10]; [17],100
same,"Plant response rating, Field Poppy",[10]; [18],100
same,"Plant response rating, Field Poppy",[10]; [19],80
same,Kochia plant response rating,kochia (Kochia scoparia); [13],0
same,"Plant response rating, Kochia",kochia (Kochia scoparia); [14],55
same,"Plant response rating, Kochia",kochia (Kochia scoparia); [15],65
same,"Plant response rating (scale of 0 to 100), Kochia","kochia (Kochia scoparia); Preemergence, 31 g ai/ha",15
same,"Plant response rating, Kochia",kochia (Kochia scoparia); [16],35
same,"Plant response rating, Kochia",kochia (Kochia scoparia); [17],40
same,"Plant response rating, Kochia",kochia (Kochia scoparia); [18],90
same,"Plant response rating, Kochia",kochia (Kochia scoparia); [19],20
same,Russian Thistle plant response rating,[11]; [13],20
same,"Plant response rating, Russian Thistle",[11]; [14],45
same,"Plant response rating, Russian Thistle",[11]; [15],55
same,"Plant response rating (scale of 0 to 100), Russian Thistle","[11]; Preemergence, 31 g ai/ha",0
same,"Plant response rating, Russian Thistle",[11]; [16],0
same,"Plant response rating, Russian Thistle",[11]; [17],0
same,"Plant response rating, Russian Thistle",[11]; [18],0
same,"Plant response rating, Russian Thistle",[11]; [19],35
same,"Barley, Winter plant response rating",[12]; [13],0
same,"Plant response rating, Barley, Winter",[12]; [14],0
same,"Plant response rating, Barley, Winter",[12]; [15],0
same,"Plant response rating (scale of 0 to 100), Barley, Winter","[12]; Preemergence, 31 g ai/ha",0
same,"Plant response rating, Barley, Winter",[12]; [16],0
same,"Plant response rating, Barley, Winter",[12]; [17],0
same,"Plant response rating, Barley, Winter",[12]; [18],0
same,"Plant response rating, Barley, Winter",[12]; [19],0
